Data taken from patent US20260137707A1, “METHODS OF MODULATING ATXN2 EXPRESSION” (University of Utah Research Foundation, priority 2022, published 2026).
Read-outs that look alike come from different tables or passages of the source. Values belong to the compound of their own block, whether it stands above or below them.

Key:
in vitro = details: human
Protocol: (§1) Compounds were plated at 2× concentrations in 25 μl in 384 well plates with each compound dose plated in triplicate. An equal volume of S2, H2, or SC cells (24,000 cells/well) suspended in phenol-red free Dulbecco's Modified Eagle Medium (DMEM) with 10% fetal bovine serum and 1× penicillin/streptomycin were added. Cells were grown 24 hrs then assayed first by using the CellTiter-Fluor reagent (20 μl) followed by the addition of Bright-Glo ([…]) luciferase assay, using a multimode plate reader (Beckman DT880). Values were reported as the mean±standard deviation (SD) with n=3. IC50s were determined by the Hill coefficient method using an online tool (https://www.aatbio.com/tools/ic50-calculator).
(§2) These 46 compounds were retested at 12 doses and a zero-compound dose, in multiplexed assays in 96-well plates using CellTiter-Fluor to determine cell viability, then Bright-Glo to determine luciferase expression. The values for H2 and S2 were used as replicates to calculate IC50s and to assess cell viability.
(§3) For CMV-luc and viability charts, the fitted lines are second-order polynomials. Means and SD are shown.

ATXN2-luc [1] = test: Secondary assays, Bright-Glo luciferase in H2 and S2 cells; type: cell-based; details: for min ATXN2-luc: minimum ATXN2-luc luciferase over 12 doses, H2 and S2 cells
Protocol: as §1, §2, §3

CMV-luc = test: Secondary assays, Bright-Glo luciferase in SC cells; type: cell-based; details: minimum CMV-luc luciferase in SC cells over 12 doses
Protocol: as §1, §3

H2, S2, and SC cells = test: in vitro
Protocol: as §1, §2, §3

ATXN2-luc [2] = test: qHTS (NCGC LOPAC pilot and primary), Steady-Glo luciferase, 1536-well; type: cell-based; details: S2 cells, LOPAC1280 library, 24 hrs
ATXN2-luc [3] = details: H2 cells
ATXN2-luc [4] = details: average ATXN2-luc response of H2 and S1 cells
[5] = ATXN2-luc, Bright-Glo, H2 and S2 values used as replicates, 12 doses, 96-well plates, read-out: Mean IC50
[6] = minimum cell viability, CellTiter-Fluor, over 12 doses

IC50 (ATXN2-luc [1]; [5]): 488 nM
SMILES: CN[C@H]1CN(c2ccc3c(=O)c(C(=O)O)cn(-c4nccs4)c3n2)C[C@@H]1OC [Vosaroxin]
viability at 24 h (in vitro): 71.6% | min ATXN2-luc (ATXN2-luc [1]): 15.1% | min SC luc (CMV-luc): 64.01%

SMILES: C[C@@]12OC(=O)[C@]1([C@@H](O)[C@@H]1C=CCCC1)NC(=O)[C@@H]2CCCl [Marizomib]
viability at 24 h (in vitro): 76% | min ATXN2-luc (ATXN2-luc [1]): 16.5% | IC50 (ATXN2-luc [1]; read-out: Mean IC50): 1110 nM | min SC luc (CMV-luc): 96.88%

SMILES: CC1(C)CC(=O)c2c(C(F)(F)F)nn(-c3ccc(C(N)=O)c(N[C@H]4CC[C@H](O)CC4)c3)c2C1 [SNX-2112]
viability at 24 h (in vitro): 83.3% | IC50 (ATXN2-luc [1]; [5]): 177 nM | min ATXN2-luc (ATXN2-luc [1]): 15.51% | min SC luc (CMV-luc): 82.28%

SMILES: O=C(O)c1ccc2c(c1)nc(Nc1cccc(Cl)c1)c1ccncc12 [Silmitasertib]
viability at 24 h (in vitro): 77.6% | IC50 (ATXN2-luc [1]; [5]): 10200 nM | min ATXN2-luc (ATXN2-luc [1]): 45.64% | min SC luc (CMV-luc): 93.78%

SMILES: C[C@@H](Oc1ccc2[nH]nc(/C=C/c3cnn(CCO)c3)c2c1)c1c(Cl)cncc1Cl [LY-2874455]
viability at 24 h (in vitro): 66.1% | IC50 (ATXN2-luc [1]; [5]): 1390 nM | min ATXN2-luc (ATXN2-luc [1]): 15.26% | min SC luc (CMV-luc): 64.27%

SMILES: Cc1cccc(Nc2nc(N[C@@H]3CCCC[C@@H]3N)ncc2C(N)=O)c1 [PRT-060318]
min viability (H2, S2, and SC cells): 94.62% | IC50 (ATXN2-luc [1]; [5]): 25400 nM | min ATXN2-luc (ATXN2-luc [1]): 64.25% | min SC luc (CMV-luc): 86.82%

SMILES: O=C(Nc1cccc(Nc2ncc(Br)c(NCCc3cnc[nH]3)n2)c1)N1CCCC1 [BX-912]
min viability (H2, S2, and SC cells; [6]): 84.4% | IC50 (ATXN2-luc [1]; [5]): 8890 nM | min ATXN2-luc (ATXN2-luc [1]): 54.94% | min SC luc (CMV-luc): 100.4%

SMILES: Nc1ncnc2c1c(-c1cnc3[nH]ccc3c1)nn2C1CCCC1 [PP121]
min viability (H2, S2, and SC cells; [6]): 50.39% | IC50 (ATXN2-luc [1]; [5]): 4160 nM | min ATXN2-luc (ATXN2-luc [1]): 27.48% | min SC luc (CMV-luc): 78.1%

SMILES: S=C(NCCCN1CCOCC1)N1CCN(c2nc(-c3ccccc3)cs2)CC1 [MLS000706289]
min viability (H2, S2, and SC cells): 89.11% | IC50 (ATXN2-luc [1]; [5]): 6850 nM | min ATXN2-luc (ATXN2-luc [1]): 61.65% | min SC luc (CMV-luc): 79.3%

SMILES: CC(C)c1cc(-c2n[nH]c(=O)n2-c2ccc3c(ccn3C)c2)c(O)cc1O [Ganetespib]
viability at 24 h (in vitro): 77.8% | IC50 (ATXN2-luc [1]; [5]): 30 nM | IC50 (ATXN2-luc [1]; H2 and S2 used as replicates, 24 hrs, read-out: IC50 (ATXN2-luc, secondary assays)): 30 nM | min ATXN2-luc (ATXN2-luc [1]): 17.74% | min SC luc (CMV-luc): 55.41%

SMILES: Clc1ccc(C[n+]2cc(-c3ccccc3)n3c2CCCCC3)c(Cl)c1.[Br-] [MLS000420216]
min viability (H2, S2, and SC cells): 84.52% | IC50 (ATXN2-luc [1]; [5]): 8080 nM | min ATXN2-luc (ATXN2-luc [1]): 56.47% | min SC luc (CMV-luc): 72.16%

IC50 (ATXN2-luc [1]; [5]): 88 nM
SMILES: CC1(C)CC(=O)c2c(C(F)(F)F)nn(-c3ccc(C(N)=O)c(N[C@H]4CC[C@H](OC(=O)CN)CC4)c3)c2C1 [SNX-5422]
viability at 24 h (in vitro): 87.1% | min ATXN2-luc (ATXN2-luc [1]): 19.97% | min SC luc (CMV-luc): 69.78%

SMILES: Cn1cc(-c2cnn3c(N)c(Br)c([C@H]4CCCNC4)nc23)cn1 [Compound 891494-64-7]
min viability (H2, S2, and SC cells): 87.04% | IC50 (ATXN2-luc [1]; [5]): 388 nM | min ATXN2-luc (ATXN2-luc [1]): 25.49% | min SC luc (CMV-luc): 91.51%

SMILES: CNC(=O)c1cc(Oc2ccc(NC(=O)Nc3cc(C(C)(C)C)nn3-c3ccc4ncccc4c3)c(F)c2)ccn1 [Rebastinib (DCC-2036)]
min viability (H2, S2, and SC cells): 56.58% | IC50 (ATXN2-luc [1]; [5]): 3730 nM | min ATXN2-luc (ATXN2-luc [1]): 27.07% | min SC luc (CMV-luc): 60.58%

SMILES: C[C@H]1O[C@@H](O[C@H]2CC[C@]3(C=O)[C@H]4CC[C@]5(C)[C@@H](C6=CC(=O)OC6)CC[C@]5(O)[C@@H]4CC[C@]3(O)C2)C[C@H](O)[C@@H]1O [Helveticoside]
Curve Class (ATXN2-luc [2]): −1.1 | SD from Mean (ATXN2-luc [3]; Table 1, 24 hrs, single 10 μM dose, Z-score of luciferase): −2.733 SD | SD from Mean (ATXN2-luc [3]; Table 5S, pilot screen, 10 μM): −2.733 SD | Luc at 1 μm (ATXN2-luc [4]; 1 μm): 118 | Luc at 10 μm (ATXN2-luc [4]; 10 μm): 41

SMILES: Cc1ccc2nc(NCCN)c3ncc(C)n3c2c1 [BMS-345541]
viability at 24 h (in vitro): 77.6% | IC50 (ATXN2-luc [1]; [5]): 4050 nM | min ATXN2-luc (ATXN2-luc [1]): 20.56% | min SC luc (CMV-luc): 96.02%
